Measured values as given in PubChem BioAssay AID248 (DTP/NCI, 2004).
Where “and” joins values, the source holds several entries; their conditions need not be identical. Identical values can stand only once. Inconclusive results and toxic doses are left out. Cut-off read from the data, not from the text of the source: active = T/C of 150% or more; inactive = T/C below 125%.

Test system: L1210 leukemia ip in BDF1 mice, survival T/C
Test: NCI In Vivo Anticancer Drug Screen. Data for tumor model L1210 Leukemia (intraperitoneal) in B6D2F1 (BDF1) mice
Conditions: endpoint: mean survival time, higher = longer survival
Summary of the method: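 Transplanted-tumor mice were given test agent; controls received vehicle only. Survival readings from the two groups were divided (treated over control).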

[1] = dose: 100.0 mg/kg/injection, schedule: Q04DX002 (ip), vehicle: Klucel (hydroxypropylcellulose) (HPC)
[2] = dose: 200.0 mg/kg/injection, schedule: Q04DX002 (ip), vehicle: Klucel (hydroxypropylcellulose) (HPC)
[3] = dose: 400.0 mg/kg/injection, schedule: Q04DX002 (ip), vehicle: Klucel (hydroxypropylcellulose) (HPC)
[4] = dose: 75.0 mg/kg/injection, schedule: Q01DX001 (ip), vehicle: saline
[5] = dose: 150.0 mg/kg/injection, schedule: Q01DX001 (ip), vehicle: saline
[6] = dose: 100.0 mg/kg/injection, schedule: Q01DX009 (ip), vehicle: Klucel (hydroxypropylcellulose) (HPC)
[7] = dose: 100.0 mg/kg/injection, schedule: Q04DX003 (ip), vehicle: Klucel (hydroxypropylcellulose) (HPC)
[8] = dose: 200.0 mg/kg/injection, schedule: Q01DX009 (ip), vehicle: Klucel (hydroxypropylcellulose) (HPC)
[9] = dose: 200.0 mg/kg/injection, schedule: Q04DX003 (ip), vehicle: Klucel (hydroxypropylcellulose) (HPC)
[10] = dose: 400.0 mg/kg/injection, schedule: Q01DX009 (ip), vehicle: Klucel (hydroxypropylcellulose) (HPC)
[11] = dose: 400.0 mg/kg/injection, schedule: Q04DX003 (ip), vehicle: Klucel (hydroxypropylcellulose) (HPC)

Measured: T/C

CC1=CCC2C(=O)C=CC(=O)C2C1 (centres undefined)
inactive: dose: 5.0 mg/kg/injection, schedule: Q01DX009 (ip), vehicle: Klucel (hydroxypropylcellulose) (HPC) 98 % of control | dose: 10.0 mg/kg/injection, schedule: Q01DX001 (ip), vehicle: carboxymethylcellulose (CMC) 107 % of control | dose: 10.0 mg/kg/injection, schedule: Q01DX009 (ip), vehicle: Klucel (hydroxypropylcellulose) (HPC) 89 % of control | dose: 20.0 mg/kg/injection, schedule: Q01DX001 (ip), vehicle: carboxymethylcellulose (CMC) 109 % of control | dose: 20.0 mg/kg/injection, schedule: Q01DX009 (ip), vehicle: Klucel (hydroxypropylcellulose) (HPC) 96 % of control | dose: 40.0 mg/kg/injection, schedule: Q01DX001 (ip), vehicle: carboxymethylcellulose (CMC) 107 % of control | dose: 80.0 mg/kg/injection, schedule: Q01DX001 (ip), vehicle: carboxymethylcellulose (CMC) 109 % of control

CCCCN1C(=O)CSC1=S
inactive: [1] 97 % of control | [2] 113 % of control | [3] 100 % of control

O=C/C=C\C=C/Nc1ccc([N+](=O)[O-])cc1[N+](=O)[O-]
inactive: dose: 100.0 mg/kg/injection, schedule: Q04DX002 (ip), vehicle: DMSO 94 % of control | dose: 200.0 mg/kg/injection, schedule: Q04DX002 (ip), vehicle: DMSO 98 % of control | dose: 400.0 mg/kg/injection, schedule: Q04DX002 (ip), vehicle: DMSO 102 % of control

Cc1ccc2c(c1)[n+]([O-])c(N)c(C#N)[n+]2[O-]
inactive: [1] 102 % of control | [2] 98 % of control

OC12CC[N+](Cc3ccccc3)(CC1)CC2
inactive: [4] 104 % of control | [5] 100 % of control

COc1ccc(N=Cc2ccc(OC(=O)c3ccccc3)c(OC)c2)cc1
inactive: dose: 100.0 mg/kg/injection, schedule: Q04DX002 (ip), vehicle: saline with Tween-80 100 % of control | dose: 200.0 mg/kg/injection, schedule: Q04DX002 (ip), vehicle: saline with Tween-80 100 % of control | dose: 400.0 mg/kg/injection, schedule: Q04DX002 (ip), vehicle: saline with Tween-80 93 % of control

CC(C)=C1C2CCC1C(COS(=O)(=O)c1ccc(C)cc1)C2COS(=O)(=O)c1ccc(C)cc1 (centres undefined)
inactive: [6] 96 % of control | [7] 98 % of control | [8] 100 % of control | [9] 104 % of control | [10] 94 % of control | [11] 102 % of control

O=c1[nH]nc(N/N=C/c2ccccc2)n1/N=C/c1ccccc1
inactive: [7] 100 % of control | [9] 96 % of control | [11] 94 % of control

CCOC(=O)Nc1cc([N+](=O)[O-])ccc1OC
inactive: dose: 100.0 mg/kg/injection, schedule: Q01DX001 (ip), vehicle: Klucel (hydroxypropylcellulose) (HPC) 105 % of control | [6] 105 % of control | [1] 96 % of control and 104 % of control | [7] 101 % of control | dose: 200.0 mg/kg/injection, schedule: Q01DX001 (ip), vehicle: Klucel (hydroxypropylcellulose) (HPC) 100 % of control | [8] 108 % of control | [2] 96 % of control and 97 % of control | [9] 98 % of control | dose: 400.0 mg/kg/injection, schedule: Q01DX001 (ip), vehicle: Klucel (hydroxypropylcellulose) (HPC) 101 % of control | [10] 102 % of control | [3] 96 % of control and 103 % of control | [11] 101 % of control

Cc1ccc(N2C(=O)CSC2=S)cc1F
inactive: [1] 96 % of control | [2] 104 % of control | [3] 101 % of control

OC(/C=C/C(O)c1ccccc1)c1ccccc1 (centres undefined)
inactive: dose: 12.5 mg/kg/injection, schedule: Q01DX009 (ip), vehicle: Klucel (hydroxypropylcellulose) (HPC) 97 % of control | dose: 12.5 mg/kg/injection, schedule: Q04DX003 (ip), vehicle: Klucel (hydroxypropylcellulose) (HPC) 95 % of control | dose: 25.0 mg/kg/injection, schedule: Q01DX009 (ip), vehicle: Klucel (hydroxypropylcellulose) (HPC) 98 % of control | dose: 25.0 mg/kg/injection, schedule: Q04DX003 (ip), vehicle: Klucel (hydroxypropylcellulose) (HPC) 100 % of control | dose: 50.0 mg/kg/injection, schedule: Q01DX009 (ip), vehicle: Klucel (hydroxypropylcellulose) (HPC) 98 % of control | dose: 50.0 mg/kg/injection, schedule: Q04DX003 (ip), vehicle: Klucel (hydroxypropylcellulose) (HPC) 94 % of control

COc1ccc(CN2CCCN(Cc3ccc(OC)cc3OC)C2c2ccc(N(CCCl)CCCl)cc2F)c(OC)c1
inactive: dose: 50.0 mg/kg/injection, schedule: Q01DX001 (ip), vehicle: carboxymethylcellulose (CMC) 104 % of control | dose: 100.0 mg/kg/injection, schedule: Q01DX001 (ip), vehicle: carboxymethylcellulose (CMC) 98 % of control | dose: 200.0 mg/kg/injection, schedule: Q01DX001 (ip), vehicle: carboxymethylcellulose (CMC) 104 % of control | dose: 400.0 mg/kg/injection, schedule: Q01DX001 (ip), vehicle: carboxymethylcellulose (CMC) 106 % of control

NCc1nc2ccccc2[nH]1
inactive: dose: 50.0 mg/kg/injection, schedule: Q01DX001 (ip), vehicle: saline 101 % of control | dose: 100.0 mg/kg/injection, schedule: Q01DX001 (ip), vehicle: saline 103 % of control | dose: 200.0 mg/kg/injection, schedule: Q01DX001 (ip), vehicle: saline 95 % of control | dose: 400.0 mg/kg/injection, schedule: Q01DX001 (ip), vehicle: saline 95 % of control

CCCCN(CCCC)C(=O)c1ccccc1C(=O)O
inactive: [4] 95 % of control | [1] 95 % of control | [5] 104 % of control | [2] 95 % of control | dose: 300.0 mg/kg/injection, schedule: Q01DX001 (ip), vehicle: saline 103 % of control

CCOC(=O)CCC[P+](c1ccccc1)(c1ccccc1)c1ccccc1
inactive: dose: 100.0 mg/kg/injection, schedule: Q01DX009 (ip), vehicle: saline with Tween-80 107 % of control | dose: 200.0 mg/kg/injection, schedule: Q01DX009 (ip), vehicle: saline with Tween-80 113 % of control

CC(NC(=O)C1CC2c3cccc4[nH]cc(c34)CC2N(C)C1)C(C)(C)C (centres undefined)
inactive: dose: 20.0 mg/kg/injection, schedule: Q01DX001 (ip), vehicle: Klucel (hydroxypropylcellulose) (HPC) 96 % of control | dose: 40.0 mg/kg/injection, schedule: Q01DX001 (ip), vehicle: Klucel (hydroxypropylcellulose) (HPC) 101 % of control | dose: 80.0 mg/kg/injection, schedule: Q01DX001 (ip), vehicle: Klucel (hydroxypropylcellulose) (HPC) 104 % of control

N#Cc1ccc(O)cc1
inactive: dose: 100.0 mg/kg/injection, schedule: Q01DX005 (ip), vehicle: Klucel (hydroxypropylcellulose) (HPC) 105 % of control | [6] 99 % of control | [1] 106 % of control | dose: 200.0 mg/kg/injection, schedule: Q01DX005 (ip), vehicle: Klucel (hydroxypropylcellulose) (HPC) 105 % of control | [8] 96 % of control | [2] 117 % of control | dose: 400.0 mg/kg/injection, schedule: Q01DX005 (ip), vehicle: Klucel (hydroxypropylcellulose) (HPC) 108 % of control | [3] 87 % of control

O=C1c2ccccc2C(=O)N1CC[P+](c1ccccc1)(c1ccccc1)c1ccccc1
inactive: dose: 1.56 mg/kg/injection, schedule: Q01DX009 (ip), vehicle: water 106 % of control | dose: 3.12 mg/kg/injection, schedule: Q01DX009 (ip), vehicle: water 107 % of control | dose: 6.25 mg/kg/injection, schedule: Q01DX009 (ip), vehicle: water 108 % of control | dose: 12.5 mg/kg/injection, schedule: Q01DX009 (ip), vehicle: water 110 % of control | dose: 25.0 mg/kg/injection, schedule: Q01DX009 (ip), vehicle: water 98 % of control

Oc1cccc2ccc3ccc4ccccc4c3c12
inactive: dose: 87.5 mg/kg/injection, schedule: Q04DX003 (ip), vehicle: Klucel (hydroxypropylcellulose) (HPC) 93 % of control | dose: 175.0 mg/kg/injection, schedule: Q04DX003 (ip), vehicle: Klucel (hydroxypropylcellulose) (HPC) 93 % of control | dose: 350.0 mg/kg/injection, schedule: Q04DX003 (ip), vehicle: Klucel (hydroxypropylcellulose) (HPC) 95 % of control

NC(CC[Se]CC(N)C(=O)O)C(=O)O (centres undefined)
inactive: dose: 0.5 mg/kg/injection, schedule: Q01DX009 (ip), vehicle: acetone 110 % of control | dose: 1.0 mg/kg/injection, schedule: Q01DX009 (ip), vehicle: acetone 103 % of control | dose: 2.0 mg/kg/injection, schedule: Q01DX009 (ip), vehicle: acetone 95 % of control | dose: 4.0 mg/kg/injection, schedule: Q01DX009 (ip), vehicle: acetone 108 % of control

CCOc1ccccc1NC(=O)Nc1cccc2ccccc12
inactive: [6] 104 % of control | [7] 90 % of control | [8] 96 % of control | [9] 91 % of control | [10] 102 % of control | [11] 88 % of control
